A value given as a limit tells only on which side of the number the result lay.

One assay relates to BJ-TERT/LT/ST/RASV12. The experiment in a line: Alamar blue viability assay, engineered tumor cells. Format: cell-based, human. The method, then: Erastin was tested in a dilution series in five engineered cell lines derived from primary BJ fibroblasts. Cells were incubated with erastin for two days at 37° C. with 5% CO2, Alamar blue was added (10% final volume) and fluorescence measured (530 nm ex, 590 nm em). Cell lines harboring oncogenic RAS (triangles, circles and x's) were sensitive to erastin, but isogenic lines lacking oncogenic RAS (squares and diamonds) were resistant. Two different clones of engineered tumor cells (circles and triangles) responded similarly.
(a) BJ-TERT/LT/ST/RAS^V12 cells were treated with 9 μM erastin A1 for the indicated length of time, and the number of viable cells determined. (b) 1,000 BJ-TERT/LT/ST/RAS^V12 cells/well in 384-well plates were treated with erastin for 2 d, then alamar blue was added to a final concentration of 10% and the plates were incubated for 16 h. Red fluorescence resulting from reduction of alamar blue was detected on a Victor3 platereader. The percent growth inhibition is shown; error bars represent one SD. […] (c) TEM images (20,000× magnification) of BJ-TERT/LT/ST/RAS^V12 mitochondria after cells were treated with nothing, erastin (37 μM for 10 h) or staurosporine (STS, 1 μM for 5 h), and phase-contrast photograph of BJ-TERT/LT/ST/RAS^V12 cells 24 h after 9 μM erastin A1 treatment is also shown to indicate that even after cell death, nuclei are intact. (d) Anti-oxidants suppress erastin-induced death. BJ-TERT/LT/ST/RAS^V12 cells were treated as indicated and photographed. (e) The number of viable cells was quantified under each condition using a hemacytometer. (f) Iron chelators suppress erastin-induced cell death. Cells were seeded in 384-well plates (6,000 cells/well) and treated with 2-fold dilution series of erastin in the presence of 100 μM desferrioxamine mesylate (DFOM), 100 μM of iron chelator 1a, 100 μM of iron chelator 2, 10 μM or 1 μM of iron chelator 311. After 24 h, alamar blue was added and cell viability assayed. (g, h) Erastin-induced formation of oxidative species. BJ-TERT/LT/ST/RAS^V12 (shown in histogram plots, and in line graph as dark diamonds) or BJ-TERT cells (shown in line graph only, light circles) were treated with 4.6-μM erastin A1 and the level of intracellular oxidative species determined. (i, j) STS, but not erastin, induces PARP1 cleavage (red bands at top) in BJ-TERT/LT/ST/RAS^V12 cells and in A673, HT1080 and HeLa cells. NS: non-specific band. […] Cells were treated with STS or erastin, separated into mitochondrial and cytosolic fractions, and probed for cytochrome c (lower red band) and total VDAC (middle green band, pan-VDAC antibody). (1) Caspase-3 is not cleaved in response to erastin. Cells were treated as indicated and probed with an anti-caspase-3 antibody that recognizes both the full length and the cleaved, active form (lower band). […] ATP levels were measured, viable cells determined by Trypan Blue exclusion and ATP per viable cell determined. Abbreviations: DMSO, dimethylsulfoxide; BHT, butylated hydroxytoluene; TOC, alpha-tocopherol; ERA, erastin A1; CAR, beta-carotene; STS, staurosprine.
(a) Calu-1 lung carcinoma cells harboring oncogenic KRAS were infected with lentivirus containing shRNAs targeting KRAS or GFP. Sequences of shRNAs are indicated by starting nucleotide (nt) in the KRAS mRNA coding sequence. Cells were treated with erastin and viability measured by Trypan Blue exclusion. (b) Knockdown of KRAS was confirmed by western blot. (c,d) A673 cells harboring oncogenic BRAF were infected with lentiviral shRNAs targeting BRAF exon 5 (c) or the 5′ UTR (d), luciferase (LUC)(c) or GFP (d). Cells were treated with erastin and viability measured using Alamar Blue (c) and Trypan Blue (d). (e) Knockdown of BRAF was confirmed by western blot. […] BJ-TERT/LT/ST/RAS^V12 cells were treated with erastin alone or in with a MEK inhibitor U0126 (20 μM), MEK inhibitor I (10 μM) or MEK 1/2 inhibitor (50 μM). After 48 h, viability was determined using Trypan Blue. […]
Background: Alamar Blue is a resazurin reagent that responds to reducing activity.

A further assay deals with several tumor cell lines. The experiment in a line: Potency in several tumor cell lines. Format: cell-based.
The next assay deals with VDAC2. The experiment in a line: VDAC isoform levels after erastin treatment (quantitative 2D western). Format: cell-based, human. To be noted: BJ-TERT/LT/ST/RASV12 cells. The text has this:
(§1) (a) Quantitative western blot of VDAC/eif4E protein ratio in engineered BJ-derived cells. (b) Identification of VDAC isoforms in BJ-TERT/LT/ST/RAS^V12 cells using 2-D electrophoresis. i) VDAC1, VDAC2 and VDAC3 were detected by a rabbit polyclonal VDAC antibody (Abcam/ab3434), ii) VDAC1 was detected by a mouse monoclonal VDAC1 antibody (Calbiochem/529534), iii) VDAC2 was detected by a goat polyclonal VDAC2 antibody (Abcam/ab22170), iv) An illustration of 3 isoforms of VDAC separated by the 2-D gel electrophoresis. (c) BJ-TERT/LT/ST/RASV12 cells were treated with erastin for the indicated time and levels of each VDAC isoform determined by quantitative 2D western. (d,e) Infection with VDAC3 shRNA protects erastin-treated cells. 293T cells were transfected with shRNA-plasmid construct using FuGene and viral supernatant transferred to HT1080 cells, and treated with erastin dilutions and viability measured using Trypan Blue exclusion. […] (f) Quantitative RT-PCR measurements of mRNA levels of the 3 VDAC isoforms after infection with shVDAC3. Knockdown was determined by normalizing to the levels in the shGFP-infected control. […] (g) Mitochondria were purified from yeast expressing murine VDAC3 in place of yeast VDAC, and the rate of NADH uptake determined in the presence or absence of erastin, or in shocked mitochondria in which the outer membrane was disrupted. […]

Another assay has as its system VDAC3. The description is as above. Particulars: BJ-TERT/LT/ST/RASV12 cells. In kind it is cell-based, human.
From the text: as §1

On to `CCOc1ccccc1-n1c(C(C)N2CCN(C(=O)COc3ccc(Cl)cc3)CC2)nc2ccccc2c1=O` (centres unmarked) [erastin], for which the RAS-selective lethality entry in the assay on BJ-TERT/LT/ST/RASV12 is recorded as “at least 16 fold”. For the same compound, in the assay on BJ-TERT/LT/ST/RASV12 (BJ-TERT/LT/ST vs BJ-TERT/LT/ST/RASV12), the RAS selectivity is on record as over 16. Moreover, the potency in the assay with several tumor cell lines lay in the range of 1000 to 5000 nM. Besides, the “treatment time after which VDAC2 became undetectable” value in the assay with VDAC2 was determined as 10 h. Also, the “treatment time after which VDAC3 was no longer detectable” value in the assay on VDAC3 turned out to be 8 h.

The values above are taken from patent US8535897B2, “Assays for non-apoptotic cell death and uses thereof” (The Trustees of Columbia University in the City of New York, priority 2006, dated 2013).
